Entries after “also recorded” stand apart in the source; their conditions may differ. Like-named read-outs stand apart in the source and are kept apart here.
What was measured:
[1] = Hepatocyte stability assay, rat; assay type: in vitro ADME; conditions: male, Sprague-Dawley, pooled hepatocytes
Description: (§1) Test and control compounds were incubated with hepatocytes at 37° C. Aliquots were removed at 6 timepoints over a one hour period. Samples were centrifuged and the supernatant fractions analysed for parent compound by mass spectrometry (LC-MS/MS).
(§2) The amount of compound remaining (expressed as %) was determined from the MS response in each sample relative to that in the T=0 samples, and used to determine the half-life and intrinsic clearance of the compound.

[2] = Hepatocyte stability assay, mouse; assay type: in vitro ADME; conditions: male, CD-1, pooled hepatocytes
Description: as §1, §2

[3] = Hepatocyte stability assay, dog; assay type: in vitro ADME; conditions: male, Beagle, pooled hepatocytes
Description: as §1, §2

[4] = Hepatocyte stability assay, human; assay type: in vitro ADME; conditions: both sexes, pooled hepatocytes; for half-life: human
Description: as §1, §2

[5] = system: pSTAT3 in IL-22 stimulated HT29 cells; assay: pSTAT3 inhibition in response to IL-22 stimulation in serum starved HT29 cells; assay type: cell-based; conditions: Homo sapiens, HT-29
Description: HT29 cells were serum starved overnight before the four test compounds were diluted to generate a 9-point semi-log dose dilution with a top concentration of 10 μM, plus vehicle control. HT29 cells were incubated with the test compounds for 20 minutes at 37° C. HT29 cells were incubated for a further 15 minutes with 10 ng/ml human IL-22 before cells were fixed with 4% PFA for 10 minutes, and 90% methanol for 30 minutes before being labelled with a phospho-STAT3Y705 antibody (CST #9145). Cells were rinsed three times using 0.5% BSA/PBS solution before being incubated with Alexa-488 anti-rabbit secondary antibodies.
Mean fluorescence intensity of phospho-STAT3 in single cells was analysed by flow cytometry using an Intellicyt iQue instrument and FlowJo software. The IC50 was determined using a four-parameter analysis following removal of background signal and normalisation to the DMSO control.

TYK2 kinase = TYK2 kinase (Homo sapiens (Human), UniProt P29597); assay: TYK2 kinase inhibition assay (33P-ATP filter binding, Reaction Biology); assay type: biochemical; conditions: ratio of IC50 to TYK2 IC50
TYK2 kinase, sequence (P29597 833-1187): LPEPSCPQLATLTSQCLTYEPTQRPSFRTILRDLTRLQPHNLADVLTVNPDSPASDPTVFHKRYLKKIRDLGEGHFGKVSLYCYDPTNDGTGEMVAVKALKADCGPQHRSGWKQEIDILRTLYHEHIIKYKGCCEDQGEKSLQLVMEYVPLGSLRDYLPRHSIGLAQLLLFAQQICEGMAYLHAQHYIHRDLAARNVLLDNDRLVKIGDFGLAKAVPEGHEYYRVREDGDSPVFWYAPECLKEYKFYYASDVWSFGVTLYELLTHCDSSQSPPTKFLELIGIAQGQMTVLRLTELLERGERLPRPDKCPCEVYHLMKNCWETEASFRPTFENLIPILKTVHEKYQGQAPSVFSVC
Description: (§3) The compound of the formula (1) was assayed for its ability to inhibit TYK2 kinase and other JAK kinases.
(§4) Substrates and kinases used in the assays are identified in Table 12 below.
(§5) Kinase assays were performed at Reaction Biology Corp., Malvern, Pennsylvania, USA, using the general procedure set out below. In the assays, the ATP concentration was 100 μM and the top compound concentrations were 10 μM.
(§6) Note that the TYK2 and JAK kinase data in Table 7 on page 61 of WO 2015/032423 were generated using an assay in which the ATP concentration was 10 μM whereas, as indicated above, the assay described in the protocol below used an ATP concentration of 100 μM. […]

JAK1 = JAK1 (Homo sapiens (Human), UniProt P23458); assay: JAK1 kinase inhibition assay (33P-ATP filter binding, Reaction Biology); assay type: biochemical; conditions: ratio of IC50 to TYK2 IC50
JAK1, sequence (P23458 866-1154): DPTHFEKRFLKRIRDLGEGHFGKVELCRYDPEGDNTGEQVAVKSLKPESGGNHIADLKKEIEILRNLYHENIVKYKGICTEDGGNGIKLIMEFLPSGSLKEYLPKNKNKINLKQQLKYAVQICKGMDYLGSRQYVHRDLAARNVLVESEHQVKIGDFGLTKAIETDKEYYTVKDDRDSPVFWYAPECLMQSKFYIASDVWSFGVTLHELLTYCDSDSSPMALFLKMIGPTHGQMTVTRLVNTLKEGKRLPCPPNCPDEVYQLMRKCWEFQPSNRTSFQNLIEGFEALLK
Description: as §3, §4, §5, §6

JAK2 = JAK2 kinase inhibition assay (33P-ATP filter binding, Reaction Biology); assay type: biochemical
Description: as §3, §4, §5, §6

JAK3 = JAK3 (Homo sapiens (Human), UniProt P52333); assay: JAK3 kinase inhibition assay (33P-ATP filter binding, Reaction Biology); assay type: biochemical
JAK3, sequence (P52333 781-1124): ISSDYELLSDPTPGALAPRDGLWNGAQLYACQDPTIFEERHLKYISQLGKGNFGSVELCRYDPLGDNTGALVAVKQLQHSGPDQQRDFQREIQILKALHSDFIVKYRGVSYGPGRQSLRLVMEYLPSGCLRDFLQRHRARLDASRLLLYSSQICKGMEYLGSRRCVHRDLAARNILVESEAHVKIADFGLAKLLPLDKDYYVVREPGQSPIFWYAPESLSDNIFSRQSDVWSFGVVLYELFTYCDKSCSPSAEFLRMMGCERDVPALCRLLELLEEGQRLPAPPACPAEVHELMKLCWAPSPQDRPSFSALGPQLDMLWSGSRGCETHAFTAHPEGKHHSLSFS
Description: as §3, §4, §5, §6

[6] = Solubility at 25° C. by HPLC of filtrates after equilibration of Form A in solvents; assay type: physicochemical; conditions: for solubility: 25 °C, organic solvent or mixture, thermodynamic from solid
[7] = Compression stability test (10×10^4N force); assay type: physicochemical
Description: Compression stability tests were carried out on samples from two batches of crystalline Form A and samples from two batches of Crystalline Form B. One pair of samples of Form A and Form B was subjected to compression under 10×10^4N force for 23 and 23¾ hours respectively to assess the impact upon form fate and chemical stability.
The other pair of samples of Form A and Form B was subjected to similar compression pressures over an extended duration of 7 days to assess the impact of prolonged compression force upon form fate and chemical stability.

[8] = Dynamic vapour sorption (DVS); assay type: physicochemical
Description: Sorption isotherms were obtained using a Hiden Isochema moisture sorption analyser (model IGAsorp), controlled by IGAsorp Systems Software V6.50.48. The sample was maintained at a constant temperature (25° C.) by the instrument controls. The humidity was controlled by mixing streams of dry and wet nitrogen, with a total flow of 250 ml·min^−1. The instrument was verified for relative humidity content by measuring three calibrated Rotronic salt solutions (10-50-88%). The weight change of the sample was monitored as a function of humidity by a microbalance (accuracy +/−0.005 mg). A defined amount of sample was placed in a tared mesh stainless steel basket under ambient conditions. A full experimental cycle typically consisted of three scans (sorption, desorption and sorption) at a constant temperature (25° C.) and 10% RH intervals over a 0-90% range (60 minutes for each humidity level).

[9] = Human hepatocytes, read-out: T1/2
[10] = IL-22 stimulated serum starved HT29 cells, read-out: pSTAT3 inhibition IC50

## NC(=O)c1nc(-c2c(Cl)cccc2Cl)oc1Nc1ccc(C(=O)N2CCOCC2)cc1 [Comparative Compound B, 2-(2,6-dichloro-phenyl)-5-[4-(morpholine-4-carbonyl)-phenylamino]-oxazole-4-carboxylic acid amide, reference compound]
[1]
  half-life: 14.8 min
[2]
  half-life: 27 min
[3]
  half-life: 53.5 min
[4]; [9]
  half-life: 124 min
[4]; human hepatocytes, read-out: half-life in humans
  half-life: > 120 min
[5]; [10]
  IC50: 0.053 µM

## NC(=O)c1nc(-c2c(Cl)cccc2Cl)oc1Nc1ccc(C(=O)N2CCS(=O)(=O)CC2)cc1 [Compound (1), 2-(2,6-dichlorophenyl)-5-[4-(1,1-dioxo-1,4-thiazinane-4-carbonyl)anilino]oxazole-4-carboxamide]
[1]
  half-life: 30.6 min
[2]
  half-life: 65.3 min
TYK2 kinase
  Selectivity v TYK2: TYK2: 1
[3]
  half-life: > 460 min
  hepatocyte CLint: < 3 µL/min/1e6 cells
[4]; [9]
  half-life: > 460 min
[4]; Human hepatocytes
  hepatocyte CLint: < 3 µL/min/1e6 cells
JAK1
  Selectivity v TYK2: JAK1: 10.5
JAK2; biochemical assays
  selectivity for TYK2 compared to JAK2: approximately 25 fold
JAK2; ratio of IC50 to TYK2 IC50
  Selectivity v TYK2: JAK2: 26.3
[5]; IL-22 stimulated HT29 cells, read-out: IC50 against pSTAT3 inhibition
  IC50: < 0.1 µM
[5]; [10]
  IC50: 0.016 µM
JAK3; biochemical assays
  selectivity for TYK2 compared to JAK3: ~110 fold
JAK3; ratio of IC50 to TYK2 IC50
  Selectivity v TYK2: JAK3: 111.6
[6]; 2-Chlorobutane
  Solubility at 25° C.: < 1000 µg/mL
[6]; 4:1 THF/water
  Solubility at 25° C.: > 10000 µg/mL
[6]; Cyclohexane
  Solubility at 25° C.: < 1000 µg/mL
[6]; DCM
  Solubility at 25° C.: > 10000 µg/mL
[6]; Nitromethane
  Solubility at 25° C.: > 10000 µg/mL
[6]; TBME
  solubility: < 1000 µg/mL
[6]; THF
  Solubility at 25° C.: > 10000 µg/mL
[6]; Water
  Solubility at 25° C.: < 1000 µg/mL
[6]; anisole
  solubility: > 10000 µg/mL
[6]; heptane, no peak detected in the chromatogram for the filtrate (×100 dilution)
  solubility: < 1000 µg/mL

## NC(=O)c1nc(-c2c(Cl)cccc2Cl)oc1Nc1ccc(C(=O)N2CCS(=O)(=O)CC2)cc1 [Form B, 2-(2,6-dichlorophenyl)-5-[4-(1,1-dioxo-1,4-thiazinane-4-carbonyl)anilino]oxazole-4-carboxamide]
[7]; compression for 7 days
  HPLC assessment post-compression (chemical stability): no change to the impurity profile; also recorded: no discernible chemical degradation
[7]; compression for both ca. 1 and 7 days
  XRPD examination of solids isolated post-compression (form fate): diffraction pattern matching the input Pattern B but of reduced diffraction resolution
[7]; compression for ca. 1 day (23 / 23¾ hours), 10×10^4N
  HPLC assessment post-compression (chemical stability): no change to the impurity profile; also recorded: no discernible chemical degradation
[8]; at 0 and 90% RH
  XRPD examination of the solid isolated post-DVS: no clear evidence of form modification
[8]; from 0 to 90% RH, 25° C.
  DVS total weight gain upon sorption: ca. 0.57 wt %
[8]; from 50 to 0% RH, 25° C.
  DVS weight reduction upon the first desorption: ca. 0.38 wt %
[8]; repeat desorption and sorption, most evident between 10 and 60% RH
  DVS hysteresis: ca. 0.11 wt %

Source: patent publication US12545652B2, “Crystalline forms of a TYK2 inhibitor” (Sareum Limited, priority 2020, dated 2026)
